Where two headings read alike, the source gives them in different places.
Columns and labels:
[1] = system: flank organs of Golden Syrian hamsters (hair growth); experiment: Golden Syrian hamster assay (flank organ hair mass); format: in vivo; settings: for inhibition in vivo at 10 %: read-out: % Inhibition (hair mass)
Description: Male intact Golden Syrian hamsters are considered acceptable models for human beard hair growth in that they display oval shaped flank organs, one on each side, each about 8 mm. in major diameter, which grow thick black and coarse hair similar to human beard hair. These organs produce hair in response to androgens in the hamster. To evaluate the effectiveness of a composition including an inhibitor of the hypusine biosynthetic pathway, the flank organs of each of a group of hamsters are depilated by applying a thioglycolate based chemical depilatory (Surgex) and/or shaved. To one organ of each animal 10 μl. of vehicle alone once a day is applied, while to the other organ of each animal an equal amount of vehicle containing an inhibitor of the hypusine biosynthetic pathway is applied. After thirteen applications (one application per day for five days a week), the flank organs are shaved and the amount of recovered hair (hair mass) from each is weighed. Percent-reduction of hair growth is calculated by subtracting the hair mass (mg) value of the test compound treated side from the hair mass value of the vehicle treated side; the delta value obtained is then divided by the hair mass value of the vehicle treated side, and the resultant number is multiplied by 100.
The above-described assay will be referred to herein as the "Golden Syrian hamster" assay.
This vehicle also was used in the testing described below.

[2] = system: 18 kD human hair follicle protein (eIF-5A); experiment: Incorporation of 3H-spermidine into 18 kD human hair follicle proteins; format: cell-based; settings: inhibitor 0.2 mM, follicles cultured 48 hours, 3H-spermidine 6 hours; for % Reduction of 3H-spermidine incorporation: 2880 min, 200 µM
Protocol: Human hair follicles derived from face lift procedures were isolated and placed in Williams E medium containing antibiotics, glutamine, insulin and hydrocortisone. Follicles were cultured for 48 hours at 37° C. in the presence of 1,6-diaminohexane (0.2 mM), 1,8-diaminooctane (0.2 mM), ciclopiroxolamine (0.2 mM) or hydralazine (0.2 mM). Control follicles were maintained in Williams E without any inhibitors present. At the end of the 48 hour period, ^3 H-spermidine […] was added to the culture for 6 hours. The hair follicles were washed in phosphate buffered saline to remove nonincorporated ^3 H-spermidine, and the follicles were homogenized in a buffer, pH 7.4, containing Tris (50 mM) and sucrose (0.5 mM). Hair follicle protein was applied to a 10% polyacrylamide gel. After the proteins were separated on the gel using a constant voltage (125 V), they were stained with coomassie blue. […] The protein bands were cutout of the gel and solubilized with BTS-450 (Beckman). The liquid scintillation fluid Econoscint (12 mL) was added to each sample, which was analyzed for ^3 H-spermidine incorporation by scintillation spectrometry.

[3] = Mesocricetus auratus, Table I, dose 10%, topical, 13 applications, pH per compound 6.0-8.5
[4] = Table I, dose 10%, topical, 13 applications, pH per compound 6.0-8.5

SMILES: NNc1nncc2ccccc12 [Hydralazine, hydralazine]
- inhibition in vivo at 5 % ([1]; Mesocricetus auratus, topical, Table III, dose 5%, pH 5.0): 33%
- % Inhibition (hair mass) ([1]; Table III, dose 5%, pH 5.0): 33 ± 7%
- Hair Mass, Treated ([1]; Table III, dose 5%, pH 5.0): 1.38 ± .14 mg
- inhibition at 200 µM ([2]; Homo sapiens, 48 h, read-out: % Reduction of 3H-spermidine incorporation): 47 to 100%
- Incorporation of 3H-spermidine [2]: 10.3 pmol/mg protein
- % Reduction of 3H-spermidine incorporation [2]: 47%

SMILES: NCCCCCCCCCN [1,9-Diaminononane, 1,9-diaminononane]
- inhibition in vivo at 10 % [1, 3]: 50 ± 13%
- Hair Mass, Treated [1, 4]: 1.27 ± .56 mq

SMILES: NCCCCN(CCCN)Cc1ccccc1 [N^4 -Benzylspermidine, N^4 -benzyl-spermidine]
- inhibition in vivo at 10 % [1, 3]: 62 ± 4%
- Hair Mass, Treated [1, 4]: 1.05 ± .12 mq

SMILES: NCCCCCCCN [1,7-Diaminoheptane, 1,7-diaminoheptane]
- inhibition in vivo at 10 % [1, 3]: 67 ± 4%
- Hair Mass, Treated [1, 4]: 0.80 ± .11 mq

SMILES: NCCCCCN [Cadaverine, cadaverine]
- inhibition in vivo at 10 % [1, 3]: 43 ± 4%
- Hair Mass, Treated [1, 4]: 1.91 ± .15 mq

SMILES: NCCCCCCCCN [1,8-Diaminooctane, 1,8-diaminooctane]
- inhibition in vivo at 2 % ([1]; Mesocricetus auratus, topical, Table II, dose 2%, pH 9.0): 24 ± 8%
- inhibition in vivo at 5 % ([1]; Mesocricetus auratus, topical, Table II, dose 5%, pH 9.0): 48 ± 10%
- inhibition in vivo at 10 % ([1]; Mesocricetus auratus, topical, Table II, dose 10%, pH 8.0): 74 ± 6%
- inhibition in vivo at 10 % [1, 3]: 74 ± 6%
- Hair Mass, Treated [1, 4]: 0.70 ± .12 mq
- Hair Mass, Treated ([1]; Table II, dose 2%, pH 9.0): 1.88 ± .25 mg
- Hair Mass, Treated ([1]; Table II, dose 5%, pH 9.0): 1.86 ± .37 mg
- Hair Mass, Treated ([1]; Table II, dose 10%, pH 8.0): 0.70 ± .12 mg
- Incorporation of 3H-spermidine [2]: < 1.0 pmol/mg protein
- % Reduction of 3H-spermidine incorporation [2]: 100%
- % Reduction of 3H-spermidine incorporation ([2]; listed as 1,8-diaminooctane): 47-100%

SMILES: Cc1cc(C2CCCCC2)n(O)c(=O)c1 [Ciclopiroxolamine, ciclopiroxolamine]
- inhibition in vivo at 10 % ([1]; Mesocricetus auratus, topical, Table III, dose 10%, pH 9.0): 44%
- % Inhibition (hair mass) ([1]; Table III, dose 10%, pH 9.0): 44 ± 17%
- Hair Mass, Treated ([1]; Table III, dose 10%, pH 9.0): 0.92 ± .21 mg
- Incorporation of 3H-spermidine [2]: < 1.0 pmol/mg protein
- % Reduction of 3H-spermidine incorporation [2]: 100%
- % Reduction of 3H-spermidine incorporation ([2]; listed as ciclopiroxolamine): 47-100%

SMILES: NCCCCCCN [1,6-Diaminohexane, 1,6-diaminohexane]
- inhibition in vivo at 10 % ([1]; Mesocricetus auratus, topical): 51 ± 5%
- Hair Mass, Treated [1, 4]: 1.50 ± .20 mq
- Incorporation of 3H-spermidine [2]: < 1.0 pmol/mg protein
- % Reduction of 3H-spermidine incorporation [2]: 100%
- % Reduction of 3H-spermidine incorporation ([2]; listed as 1,6-diaminohexane): 47-100%

— US6060471A, “Reduction of hair growth” (priority 1998, dated 2000)
